Laboratory results as given in patent EP4810052A2, “HCRHR2 SELECTIVE POLYPEPTIDES” (Gubra A/S, priority 2023, dated 2026).
Marks after values point to notes of the source that are not given here. Starred links: 1 amine or outer side, 2 acyl side, 3 side chain; linkers in the order of their positions; H or OH if unused. Non-standard residues stand in square brackets, D forms with d. Residues, ends and D or L forms follow the SMILES beside them. Groups on a side chain read outwards from the residue. *: point of attachment. C20 diacid = O=C(O)CCCCCCCCCCCCCCCCCCC(=O)*; γGlu = O=C(O)[C@H](CCC(=O)[*:2])N[*:1]; NMeI = CC[C@H](C)[C@H](NC)C(=O)O; AEEA = NCCOCCOCC(=O)O

Legend:
[1] = Chemical stability of purified peptides (RP-UHPLC main peak purity loss); assay type: physicochemical
Outline: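 Peptides at about 1.0 mg/ml in 50 mM phosphate buffer pH 7.5, or pH-adjusted for the pH series, were incubated at 40 °C for 14 and 28 days. Main-peak purity was taken as main-peak area over total area by RP-UHPLC (UV 215 nm, C8, 50 °C). Purity loss was calculated versus T0.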

PK in mice = assay type: in vivo; design: T½ / MRT: unit: h; settings: for MRT / T½ / clearance / half-life / Cmax / Tmax: Mouse; for bioavailability / clearance / half-life / Cmax / Tmax: male, in vivo; for bioavailability: NMRI, mouse; for clearance / half-life / Cmax / Tmax: NMRI/RjHan; for half-life: read-out: T½ (converted)
Description: (§1) Lean male NMRI/RjHan mice were obtained from JanVier (JanVier Labs, France) at 6 weeks of age. The animals were single housed under a 12/12 h dark-light cycle, light off at 3 PM. Room temperature was controlled to 22°C ± 1°C, with 60 % ± 20% humidity. Animals had ad libitum access to regular rodent chow (Altromin 1324, Brogaarden, Denmark) and tap water.
After 2 weeks of acclimatization, the animals were randomized into treatment groups (n=9 per group) based on body weight. Animals were dosed IV with one peptide and SC with another peptide (15 or 50 nmol/kg) Plasma samples were collected for PK analysis at times 0.17, 1, 3, 6, 24, 30, 48, 72 and 96 hours post dosing in a sparse sampling design with 3 mice per group per timepoint. Plasma samples were analyzed using LC-MSMS and PK parameters were estimated by Non-Compartmental Analysis (NCA).

PK in rats = assay type: in vivo; design: T½ / MRT: unit not given here; settings: for MRT / T½ / clearance / half-life / Cmax / Tmax: Rat; for clearance / half-life / Cmax / Tmax / bioavailability: male, in vivo; for clearance / half-life / Cmax / Tmax: Sprague Dawley (RJHan:SD); for half-life: read-out: T½ (converted); for bioavailability: Sprague Dawley, rat
Outline: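 Lean male Sprague Dawley rats (n = 3 per group) got a two-peptide combination at 50 nmol/kg IV and SC. Plasma was sampled from 0.17 to 96 h post dose and analysed by LC-MSMS. PK parameters came from non-compartmental analysis.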

[2] = Effect on acute food intake in mice; assay type: in vivo; settings: single subcutaneous dose
Description: as §1, with “Male NMRI mice” for “Lean male NMRI/RjHan mice”, “at 5” for “at 6”, “were group-housed 4 mice pr. cage” for “were single housed”, “at 1” for “at 3”
Animals were transferred 5-7 days before the start of the study to a real-time food intake monitoring system, HM-2 system (MBRose, Denmark) to allow acclimatization to experimental conditions. As the animals were uniquely identified with microchips, each individual animal was identified by its microchip upon entry and exit from the food channel. Randomization of the mice for each study group (n=7-8) was based on body weight measured the day before the start of the study. A vehicle-treated group was included in each experiment. Six hours before the start of the dark phase, animals were fasted. One hour before the dark phase, animals were dosed once subcutaneously with test peptide. Food intake was reported hourly for a period of 72 hours. The percentage of food intake reduction was normalized to average food intake from the vehicle group. Statistical significance was evaluated using One-way analysis of variance with Dunnett's multiple comparison test. P < 0.05 was considered statistically significant.
Selected compounds were tested according to the general procedure on acute food intake in mice to determine the effect of a single subcutaneous dose on food intake in mice over 3 days.

pCRHR1 = assay: cAMP potency, transiently transfected CHO-K1 cells, pCRHR1; assay type: cell-based, pig; settings: transiently transfected CHO-K1, average n=3; read-out: Transient cell system EC50 (nM) pCRHR 1
Description: Selected peptides were tested for potency on different species (mouse, rat, porcine) using transiently transfected CHO-K1 cells using the general procedure.

[3] = pH 7.5, 40°C, 14 days, first value of cell
[4] = pH 7.5, 40°C, 28 days, second value of cell

## CC[C@H](C)[C@H](N)C(=O)N[C@H](C(=O)N[C@@H](CC(C)C)C(=O)N[C@@H](CO)C(=O)N[C@@H](CC(C)C)C(=O)N[C@@H](CC(=O)O)C(=O)N[C@H](C(=O)N1CCC[C@H]1C(=O)N[C@H](C(=O)NCC(=O)N[C@@H](CC(C)C)C(=O)N[C@@H](CC(C)C)C(=O)N[C@@H](CCC(N)=O)C(=O)N[C@H](C(=O)N[C@@H](CC(C)C)C(=O)N[C@@H](CC(C)C)C(=O)N[C@@H](CCC(=O)O)C(=O)N[C@@H](CCC(N)=O)C(=O)N[C@@H](C)C(=O)N[C@@H](CCCNC(=N)N)C(=O)N[C@@H](C)C(=O)N[C@@H](CCCNC(=N)N)C(=O)N[C@@H](C)C(=O)N[C@@H](C)C(=O)N[C@@H](CCCNC(=N)N)C(=O)N[C@@H](CCC(=O)O)C(=O)N[C@@H](CCC(N)=O)C(=O)N[C@@H](C)C(=O)N[C@@H](CCCCNC(=O)COCCOCCNC(=O)COCCOCCNC(=O)CC[C@H](NC(=O)CC[C@H](NC(=O)CCCCCCCCCCCCCCCCCCC(=O)O)C(=O)O)C(=O)O)C(=O)N[C@H](C(=O)N[C@@H](CC(N)=O)C(=O)N[C@@H](C)C(=O)N[C@@H](CCC(=O)O)C(=O)N[C@H](C(=O)N[C@@H](CC(C)C)C(=O)N[C@@H](C)C(=O)N[C@@H](CCC(=O)O)C(=O)N[C@H](C(N)=O)C(C)C)[C@@H](C)CC)[C@@H](C)O)[C@@H](C)CC)[C@@H](C)CC)C(C)C)C(C)C [SEQ ID NO: 3] (H-IVLSLDVPIGLLQILLEQARARAAREQAK([AEEA-AEEA-γGlu-γGlu-C20 diacid])TNAEILAEV-NH2)
[1]; [3]
  Chemical stability at pH 7.5 after 14 days at 40°C (% degradation): -6.1%
[1]; [4]
  Chemical stability at pH 7.5 after 28 days at 40°C (% degradation): -15%
[1]; pH 7.5, 14 days, 40°C
  Chemical stability at pH 7.5 after 14 days at 40°C (% degradation): -6.1%
[1]; pH 7.5, 28 days, 40°C
  Chemical stability at pH 7.5 after 28 days at 40°C (% degradation): -15%
PK in mice
  MRT: 17.5
  T½: 13.5
PK in mice; sc
  bioavailability: 43.1%
PK in mice; iv, 50 nmol/kg i.v.
  clearance: < 10 mL/h/kg
  half-life: 13.5 h
PK in mice; sc, 50 nmol/kg s.c.
  Cmax: 141 nM
  Tmax: 24 h
  half-life: 11.4 h
PK in rats
  MRT: 9.2
  T½: 7.7
PK in rats; iv, 50 nmol/kg i.v.
  clearance: 5 mL/h/kg
  half-life: 7.7 h
PK in rats; sc, 50 nmol/kg s.c.
  Cmax: 90 nM
  Tmax: 24 h
  half-life: 7.9 h
PK in rats; sc
  bioavailability: 27%
[2]; 30 nmol/kg
  % FI compared to vehicle, 24 h post-dosing: 67.63*** %
[2]; 100 nmol/kg
  % FI compared to vehicle, 24 h post-dosing: 30.75*** %
[2]; 300 nmol/kg
  % FI compared to vehicle, 24 h post-dosing: 30.66*** %
pCRHR1
  EC50: > 5000 nM
pH 7.5
  Solubility pH 7.5, target conc. =5 mg/mL (measured mg/mL): 4.5 mg/mL
  Solubility pH 7.5, target conc. =10 mg/mL (measured mg/mL): 10 mg/mL

## CC[C@H](C)[C@H](NC)C(=O)N[C@H](C(=O)N[C@@H](CC(C)C)C(=O)N[C@@H](CO)C(=O)N[C@@H](CC(C)C)C(=O)N[C@@H](CC(=O)O)C(=O)N[C@H](C(=O)N1CCC[C@H]1C(=O)N[C@H](C(=O)NCC(=O)N[C@@H](CC(C)C)C(=O)N[C@@H](CC(C)C)C(=O)N[C@@H](CCC(N)=O)C(=O)N[C@H](C(=O)N[C@@H](CC(C)C)C(=O)N[C@@H](CC(C)C)C(=O)N[C@@H](CCC(=O)O)C(=O)N[C@@H](CCC(N)=O)C(=O)N[C@@H](C)C(=O)N[C@@H](CCCNC(=N)N)C(=O)N[C@@H](C)C(=O)N[C@@H](CCCNC(=N)N)C(=O)N[C@@H](C)C(=O)N[C@@H](C)C(=O)N[C@@H](CCCNC(=N)N)C(=O)N[C@@H](CCC(=O)O)C(=O)N[C@@H](CCC(N)=O)C(=O)N[C@@H](C)C(=O)N[C@H](C(=O)N[C@@H](CCCCNC(=O)COCCOCCNC(=O)COCCOCCNC(=O)CC[C@H](NC(=O)CC[C@H](NC(=O)CCCCCCCCCCCCCCCCCCC(=O)O)C(=O)O)C(=O)O)C(=O)N[C@@H](CC(N)=O)C(=O)N[C@@H](C)C(=O)N[C@@H](CCC(=O)O)C(=O)N[C@H](C(=O)N[C@@H](CC(C)C)C(=O)N[C@@H](C)C(=O)N[C@@H](CCC(=O)O)C(=O)N[C@H](C(N)=O)C(C)C)[C@@H](C)CC)[C@@H](C)O)[C@@H](C)CC)[C@@H](C)CC)C(C)C)C(C)C [SEQ ID NO: 6] (H-[NMeI]VLSLDVPIGLLQILLEQARARAAREQATK([AEEA-AEEA-γGlu-γGlu-C20 diacid])NAEILAEV-NH2)
[1]; pH 7.0, 40°C, 14 days
  Purity loss (RP-UPLC analysis) T14-T0 (%): -1.8%
[1]; pH 7.0, 40°C, 28 days
  Purity loss (RP-UPLC analysis) T28-T0 (%): -2.0%
[1]; pH 7.5, 40°C, 14 days
  Purity loss (RP-UPLC analysis) T14-T0 (%): -1.1%
[1]; [3]
  Chemical stability at pH 7.5 after 14 days at 40°C (% degradation): -1.0%
[1]; pH 7.5, 40°C, 28 days
  Purity loss (RP-UPLC analysis) T28-T0 (%): -2.6%
[1]; [4]
  Chemical stability at pH 7.5 after 28 days at 40°C (% degradation): -3.5%
[1]; pH 8.0, 40°C, 14 days
  Purity loss (RP-UPLC analysis) T14-T0 (%): -3.1%
[1]; pH 8.0, 40°C, 28 days
  Purity loss (RP-UPLC analysis) T28-T0 (%): -7.1%
PK in mice
  MRT: 16
  T½: 14.7
PK in mice; sc
  bioavailability: 78%
PK in mice; iv, 15 nmol/kg i.v.
  clearance: 3.3 mL/h/kg
  half-life: 14.7 h
PK in mice; sc, 15 nmol/kg s.c.
  Cmax: 90 nM
  Tmax: 24 h
  half-life: 16 h
PK in rats
  MRT: 7.4
  T½: 6.1
PK in rats; iv, 50 nmol/kg i.v.
  clearance: 9 mL/h/kg
  half-life: 6.1 h
PK in rats; sc, 50 nmol/kg s.c.
  Cmax: 70 nM
  Tmax: 24 h
  half-life: 8.4 h
PK in rats; sc
  bioavailability: 35%
[2]; 30 nmol/kg
  % FI compared to vehicle, 24 h post-dosing: 51.61*** %
[2]; 100 nmol/kg
  % FI compared to vehicle, 24 h post-dosing: 25.76*** %
[2]; 300 nmol/kg
  % FI compared to vehicle, 24 h post-dosing: 12.69*** %
pCRHR1
  EC50: > 5000 nM
pH 6.5
  Solubility pH 6.5 (mg/ml): 21.1 mg/ml
pH 7
  Solubility pH 7.0 (mg/mL): 20.0 mg/mL
pH 7.5
  Solubility pH 7.5 (mg/mL): 18.7 mg/mL
  Solubility pH 7.5 + phenol (mg/mL): 18.1 mg/mL
